Results taken from US9856259B2, “Heterocyclic compounds and uses thereof” (Plexxikon Inc., priority 2014, dated 2018).

Tests used:
MV-4-11 = experiment: Oncology cell growth assay, MV-4-11 3 d growth; type: cell-based; conditions: Homo sapiens, MV4-11; MV-4-11 cells, 72 hours, CellTiter Glo; read-out: Cell activity (IC50 μM) MV-4-11 3 d-Growtb
Experimental: In this study, we test compounds in different cancer cell lines. MV-4-11 and MOLM-13 are AML cell lines harboring a MLL-AF4 and MLL-AF9 translocation, respectively. MM.1S is a multiple myeloma cell line. SK—N-AS, IMR-32 and SK-N-BE(2) are neuroblastoma cell lines. IMR-32 and SK-N-BE(2) cell lines harbor MYCN amplifications.
MV-4-11, MM.1S, IMR-32, SK-N-AS and SK-N-BE(2) were obtained from ATCC (IL, USA) and MOLM-13 were purchased from DSMZ (Braunschweig, German). Cells are cultured as recommended by their sources. For growth inhibition studies 3000 cells are seeded in wells of a 96-well plate in 75 μL of culture media. After several hours, growth media containing compounds of formula (I) are added to the wells. Compound at a maximal concentration of 5 mM was serially diluted 1:3 for a total of 8 point titration with DMSO as a control. A 1 μL aliquot of each dilution point is added to 249 μL growth media and 75 μL is added to each well containing cells, providing 10 μM compound at the maximum concentration point. The final concentration of DMSO in all wells is 0.2%. Cells are incubated for 72 hours, and 25 μL of CellTiter Glo Reagent (Promega Ga., USA) is added to each well. Plates are shaken for approximately 10 minutes and chemiluminescent signal is read on Tecan microplate reader. The measured luminescence correlates directly with cell number.
All data is normalized to the mean of eight DMSO high control wells on each plate. A four parameter curve fit of the following formula was then applied: Y=a+(b−a)/(1+(x/c)^d) Where ‘a’ is the minimum, ‘b’ is the maximum, ‘c’ is the pIC50 and ‘d’ is the Hill slope. […] Myc Reporter Assay

BRD4-BD12 = target: T1, BRD4-BD12 (Homo sapiens, UniProt O60885); experiment: Alphascreen binding assay, BRD4(1 2) H4; conditions: BRD4 dual bromodomains with acetylated Histone 4 peptide, read-out: Biochemical activity (IC50 μM) BRD4(1 2) H4
T1 construct: dual bromodomains (BRD4-BD12 (1-477), BRD4-BD12 (1-472)); six-His tag (N); made in house; host or cells: E. coli BL21-CodonPlus (DE3)
Experimental: Binding of compounds of formula (I) with bromodomain 2, 3 4 was assessed using Alphascreen binding assay. The inhibition of the interaction between bromodomain and its acetylated target protein (Filippakopoulos P et al. 2012) was measured quantitatively using recombinant BRD proteins, an acetylated Histone 4 peptide and AlphaScreen™ technology. In absence of inhibition the BRD protein bound to AlphaScreen™ nickel chelate acceptor beads can interact with the acetylated Histone 4 peptide which is immobilized by the AlphaScreen™ Streptavidin coated beads. This interaction brings donor and acceptor beads in proximity. The close proximity allows the singlet oxygen produced by laser excitation of the donor beads to reach the acceptor beads and generate a luminescence signal. BRD inhibitors result in a decrease in the proximity signal through an inhibition of the BRD acetylated peptide interaction.
Recombinant human bromodomains containing the N-terminal bromodomain (BRD2-BD1 (71-194), BRD3-BD1 (24-144) and BRD4-BD1 (44-164)) or dual bromodomains (BRD4-BD12 (1-477), BRD4-BD12 (1-472)) were prepared and purified as described in protein expression and purification session. The peptide is human Histone H41-21K5AcK8AcK12AcK16Ac-Biotin (Anaspec Calif., USA).
Protocol for BRD2, BRD3 and BRD4 assay: All components are prepared in buffer composed of 50 mM HEPES pH 7.5, 100 mM NaCl, 0.01% BSA, 0.01% Triton X-100, 2 mM DTT. 7 μL of Bromodomain protein and 7 μL of peptide are added to wells containing 1 μL of various concentrations of test compounds of formula (I) or DMSO vehicle in an Alphaplate (PerkinElmer Ga., USA) and incubated for 1 hour at room temperature. 4 μL donor and acceptor bead mixture is then added with final concentrations of 7.5 μg/ml. 30 minutes after bead addition, Alpha signal is read on the Envision spectrometer (λEx 680 nm, λEm 520-620 nm). Final concentrations of bromodomain proteins and peptide are as shown below.
All data was normalized to the mean of 16 high and 16 low control wells on each plate. A four parameter curve fit of the following formula was then applied: Y=a+(b−a)/(1+(x/c)^d) Where ‘a’ is the minimum, ‘b’ is the maximum, ‘c’ is the pIC50 and ‘d’ is the Hill slope. Protein Expression and Purification
Recombinant human bromodomains containing the N-terminal bromodomain (BRD2-BD1 (71-194), BRD3-BD1 (24-144) and BRD4-BD1 (44-164)) or dual bromodomains (BRD4-BD12 (1-477), BRD4-BD12 (1-472)) were expressed in E. coli cells (in a modified pET vector) with an N-terminal six-His tag and purified using a combination of both IMAC (Ni-affinity) and size exclusion chromatography steps.
Recombinant BRD proteins were expressed using the E. coli strain BL21-CodonPlus (DE3) (Agilent Technologies CA, USA). Cells were grown in Terrific Broth (TB) media to an OD600 of 1.2 at 37° C. at which temperature was reduced to 25° C., protein was induced with 1.0 mM IPTG for 12-18 hours and harvested by centrifugation at 8000×g for 20 minutes. Cells were re-suspended in 0.1M KPO4 pH 8.0, 250 mM NaCl, 10% Glycerol, 0.75% NP-40, 25 mM Imidazole, 5 mM BME with 0.2 mg/ml Lysosyme, 2.0 mM PMSF, 25 μg/ml DNAse I, incubated on ice for 30 minutes and lyzed with a cell disruptor (MicroFluidics MA, USA). The lysate was clarified by centrifugation at 20,000×g for 2 hours. The protein was captured with Ni-NTA resin (Life Technologies, USA). Contaminating proteins were washed off with 25 mM Tris-HCl pH 8.3, 250 mM NaCl, 12% Glycerol and 50 mM Imidazole. Following 3× wash steps, protein was eluted step wise using a 50 mM HEPES pH 7.5, 500 mM NaCl and 400 mM Imidazole. The protein was further purified using Gel Filtration column 26/600 Superdex 200 (GE Biosciences N.J., USA) in 50 mM HEPES pH 7.5, 250 mM NaCl. The protein was aliquoted and flash-frozen in liquid Nitrogen.

[1] = test system: cancer cell lines / MV-4-11 Myc reporter cell line; experiment: Bromodomain cell assays of Example 8 (at least one of them); type: cell-based; conditions: Homo sapiens, MV4-11; at least one of the bromodomain cell assays described in Example 8
Method in brief: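 Antiproliferation: 3000 cells/well, 8-point 1:3 titration from 10 µM final, 0.2% DMSO, 72 h, CellTiter Glo luminescence. Myc reporter: MV-4-11 with E-box firefly luciferase, 25,000 cells, same titration, 24 h; One-Glo luminescence with CellTiter-Fluo viability; 10 µM JQ1 as low control. pIC50 from four-parameter fit.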

Compound | IC50 (MV-4-11) | IC50 (BRD4-BD12) | IC50 [1]
Cc1noc(C)c1-c1cnc2c(-c3ccc(CC(=O)O)cc3)cn(C(c3ccccc3)c3ccccn3)c2n1 (stereo not drawn) [Compound P-2048, 2-[4-[3-(3,5-dimethylisoxazol-4-yl)-5-[phenyl(2-pyridyl)methyl]pyrrolo[2,3-b]pyrazin-7-yl]phenyl]acetic acid] | ≤ 1 µM | ≤ 1 µM | < 10 µM
COC(=O)c1ccc(-c2cn([C@@H](C)c3ccccn3)c3nc(-c4c(C)noc4C)cnc23)cc1 [Compound P-2049, methyl 4-[3-(3,5-dimethylisoxazol-4-yl)-5-[(1S)-1-(2-pyridyl)ethyl]pyrrolo[2,3-b]pyrazin-7-yl]benzoate] | ≤ 1 µM | ≤ 1 µM | < 10 µM
Cc1noc(C)c1-c1cnc2c(-c3ccc(C(=O)O)cc3)cn([C@@H](C)c3ccccn3)c2n1 [Compound P-2050, 4-[3-(3,5-dimethylisoxazol-4-yl)-5-[(1S)-1-(2-pyridyl)ethyl]pyrrolo[2,3-b]pyrazin-7-yl]benzoic acid] | ≤ 1 µM | ≤ 1 µM | < 10 µM
COC(=O)Cc1ccc(-c2cn([C@@H](C)c3ccccn3)c3nc(-c4c(C)noc4C)cnc23)cc1 [Compound P-2051, methyl 2-[4-[3-(3,5-dimethylisoxazol-4-yl)-5-[(1S)-1-(2-pyridyl)ethyl]pyrrolo[2,3-b]pyrazin-7-yl]phenyl]acetate] | ≤ 1 µM | ≤ 1 µM | < 10 µM
Cc1noc(C)c1-c1cnc2c(-c3ccc(CC(=O)O)cc3)cn([C@@H](C)c3ccccn3)c2n1 [Compound P-2052, 2-[4-[3-(3,5-dimethylisoxazol-4-yl)-5-[(1S)-1-(2-pyridyl)ethyl]pyrrolo[2,3-b]pyrazin-7-yl]phenyl]acetic acid] | ≤ 1 µM | ≤ 1 µM | < 10 µM
COC(=O)C1(c2ccc(-c3cn([C@@H](C)c4ccccn4)c4nc(-c5c(C)noc5C)cnc34)cc2)CC1 [Compound P-2053, methyl 1-[4-[3-(3,5-dimethylisoxazol-4-yl)-5-[(1S)-1-(2-pyridyl)ethyl]pyrrolo[2,3-b]pyrazin-7-yl]phenyl]cyclopropanecarboxylate] | ≤ 1 µM | ≤ 1 µM | < 10 µM
Cc1noc(C)c1-c1cnc2c(-c3ccc(C4(C(=O)O)CC4)cc3)cn([C@@H](C)c3ccccn3)c2n1 [Compound P-2054, 1-[4-[3-(3,5-dimethylisoxazol-4-yl)-5-[(1S)-1-(2-pyridyl)ethyl]pyrrolo[2,3-b]pyrazin-7-yl]phenyl]cyclopropanecarboxylic acid] | ≤ 1 µM | ≤ 1 µM | < 10 µM
Cc1noc(C)c1-c1cnc2c(-c3ccc(C#N)nc3)cn([C@@H](C)c3ccccn3)c2n1 [Compound P-2055, 5-[3-(3,5-dimethylisoxazol-4-yl)-5-[(1S)-1-(2-pyridyl)ethyl]pyrrolo[2,3-b]pyrazin-7-yl]pyridine-2-carbonitrile] | ≤ 1 µM | ≤ 1 µM | < 10 µM
Cc1noc(C)c1-c1cnc2c(I)cn([C@@H](C)c3ccccn3)c2n1 [Compound P-2056, 4-[7-iodo-5-[(1S)-1-(2-pyridyl)ethyl]pyrrolo[2,3-b]pyrazin-3-yl]-3,5-dimethyl-isoxazole] | ≤ 1 µM | ≤ 1 µM | < 10 µM
Cc1noc(C)c1-c1cnc2[nH]cc(CC3CCC(F)(F)CC3)c2n1 [Compound P-2077, 4-[7-[(4,4-difluorocyclohexyl)methyl]-5H-pyrrolo[2,3-b]pyrazin-2-yl]-3,5-dimethyl-isoxazole] | 1 to 10 µM | 1 to 10 µM | < 10 µM
Cc1noc(C)c1-c1cnc2c(n1)c(CC1CCC(F)(F)CC1)cn2-c1ccc(C(=O)O)cn1 [Compound P-2078, 6-[7-[(4,4-difluorocyclohexyl)methyl]-2-(3,5-dimethylisoxazol-4-yl)pyrrolo[2,3-b]pyrazin-5-yl]pyridine-3-carboxylic acid] | 1 to 10 µM | ≤ 1 µM | < 10 µM
Cc1noc(C)c1-c1cnc2cnn(CC3CCC(F)(F)CC3)c2c1 [Compound P-2079, 4-[1-[(4,4-difluorocyclohexyl)methyl]pyrazolo[4,3-b]pyridin-6-yl]-3,5-dimethyl-isoxazole] | ≤ 1 µM | ≤ 1 µM | < 10 µM
Cc1noc(C)c1-c1cnc2c(I)nn(CC3CCC(F)(F)CC3)c2c1 [Compound P-2080, 4-[1-[(4,4-difluorocyclohexyl)methyl]-3-iodo-pyrazolo[4,3-b]pyridin-6-yl]-3,5-dimethyl-isoxazole] | ≤ 1 µM | ≤ 1 µM | < 10 µM
Cc1noc(C)c1-c1cnc2c(-c3cnn(C)c3)nn(CC3CCC(F)(F)CC3)c2c1 [Compound P-2081, 4-[1-[(4,4-difluorocyclohexyl)methyl]-3-(1-methylpyrazol-4-yl)pyrazolo[4,3-b]pyridin-6-yl]-3,5-dimethyl-isoxazole] | ≤ 1 µM | ≤ 1 µM | < 10 µM
Cc1noc(C)c1-c1cnc2c(-c3cnn(C(F)F)c3)nn(CC3CCC(F)(F)CC3)c2c1 [Compound P-2082, 4-[1-[(4,4-difluorocyclohexyl)methyl]-3-[1-(difluoromethyl)pyrazol-4-yl]pyrazolo[4,3-b]pyridin-6-yl]-3,5-dimethyl-isoxazole] | ≤ 1 µM | ≤ 1 µM | < 10 µM
